The values that follow are results of earlier work, collected in article PMC8515052, “PepVAE: Variational Autoencoder Framework for Antimicrobial Peptide Generation and Activity Prediction” (Frontiers in Microbiology, 2021).

This data set concerns Acinetobacter baumannii. The conditions noted are these: murine model of infection; ref Stokes et al., 2020. An excerpt: Many pathogenic bacteria are resistant to the majority of, if not all, antibiotics that are currently being isolated using traditional methods. Because of this, generation of new antimicrobials is critical for survival in the post-antibiotic era ([Brown and Wright, 2016]). At the current rate, annual global death due to antibiotic resistance is projected to exceed 10 million by 2050, costing 100 trillion USD ([O’Neill, 2014]); however, investment has not kept up with the task with very few antibiotics currently in clinical development and far fewer likely to be approved for treatment of patien ...

In the case of `Nc1nnc(Sc2ncc([N+](=O)[O-])s2)s1` [halicin], the “activity against Acinetobacter baumannii” value is “displays activity”.
